The values that follow come from publication PMC11541474, “Toward New Therapeutics for Visceral Leishmaniasis: Efficacy and Mechanism of Action of Amides Inspired by Gibbilimbol B” (ACS Omega, 2024).

What all share (assay type): cell-based, Leishmania (L.) infantum
Assay [1] deals with L. (L.) infantum promastigotes. The following applies: 9 at 141.5 μM, 10 at 110.1 μM, after 240 min. As for the experimental part: Figure 5 Evaluation of ROS in promastigotes of L. (L.) infantum treated with compounds 9 (141.5 μM) or 10 (110.1 μM). […]
Measurements of ROS were conducted as previously reported.[48] Briefly, promastigotes were treated with compounds 9 (141.5 μM) or 10 (110.1 μM) in HBSS+Glu at 24 °C using H2DCFDA (Molecular Probes). Fluorescence was measured using a fluorimetric microplate reader (FilterMax F5Multi-Mode, Molecular Devices) with excitation and emission filters at 485 and 520 nm, respectively.[48] Untreated and treated parasites (H2O2 - 40 μM) were used as negative and positive controls, respectively.

Assay [2] relates to L. (L.) infantum promastigotes. Nature of the assay: mitochondrial membrane electric potential, JC-1 flow cytometry. The settings on record: 9 at 141.5 μM, 10 at 110.1 μM, 4 h exposure. From the text:
Mitochondria perform several vital functions and play an essential role in maintaining cellular balance, thus making them a potential target for new drugs against Leishmania spp. Mitochondria are composed of two interconnected membranes and play crucial roles in energy production (ATP), calcium regulation, and the induction of programmed cell death among other processes.[22],[23] Prolonged changes in mitochondrial membrane potential can lead to irreversible cellular damage.[24] The mitochondrial membrane potential of L. (L.) infantum promastigotes (Figure 6) was evaluated by flow cytometry using JC-1.[25] […] The compound carbonyl cyanide m-chlorophenyl […] (CCCP) was used to induce maximum depolarization (positive control), whereas untreated parasites served as a negative control. […] Both alterations may have contributed to the observed mitochondrial dysfunction and might explain the reduction in ROS levels after treatment that was observed. […] JC-1 dye fluorescence was measured by flow cytometry (excitation and emission at 488 and 530 nm, respectively) after incubation. […] Fluorescence is reported as the quotient of channels BL2/BL1.**: p = 0.0001. […] Fluorescence was measured with excitation and emission filters at 488 and 530 nm (BL-1)/574 nm (BL-2), respectively. […]

Assay [3] deals with L. (L.) infantum promastigotes. The assay is described as follows: acidocalcisome alterations, acridine orange. The settings on record: 9 at 141.5 μM (20 min), 10 at 110.1 μM (significant from 60 min onward). An excerpt:
Acidocalcisomes are intracellular organelles that are characterized by acidity and high calcium concentrations due to the proton and calcium pumps.[33] In trypanosomatids, these organelles are rich in short-chain polyphosphates and occupy a small proportion (1 to 2%) of each cell’s volume.[34] In these parasites, the acidocalcisomes are responsible for capturing and storing calcium in large quantities, which is essential for cellular functioning.[35] In our study, we investigated possible changes resulting from treatment with compounds in acidocalcisomes, especially concerning intracellular calcium. Acridine orange was used as a fluorescent probe to evaluate changes in the acidocalcisomes of L. (L.) infantum promastigotes. Alkalinization of these organelles results in the release of the probe, altering the fluorescence.[36] […] These effects were compared with those of the positive (nigericin) and negative (untreated parasites) controls. Figure 8 Acidocalcisome alkalization in L. (L.) infantum treated with compounds 9 (141.5 μM - A) or 10 (110.1 μM - B). […] Fluorescence is represented as a percentage of the fluorescence in the positive control with nigericin at 20 min (100%). ***p = 0.003, **p = 0.0021, **p = 0.05. […] The fluorescence was measured in a spectrofluorimeter with excitation an emission at […], respectively. […]

As for `CCCCC(CC)CNC(=O)c1ccc(Cl)cc1` (stereo not drawn) [Compound 9, N-(2-Ethylhexyl)-4-chlorobenzamide], the “ROS levels compared with negative control (H2DCFDA)” value in assay [1] is reported as “significantly reduced ROS levels”. In addition, the “mitochondrial membrane potential (JC-1) compared with untreated promastigotes” value in assay [2] is given as “significant depolarization of the mitochondrial membrane”. Besides, the “effect on acidocalcisomes (acridine orange fluorescence)” value in assay [3] is given as “alkalinization of the acidocalcisomes”.

On to `CCCCC(CC)CNC(=O)c1ccc([N+](=O)[O-])cc1` (stereo not drawn) [Compound 10, N-(2-Ethylhexyl)-4-nitrobenzamide], for which the “ROS levels compared with negative control (H2DCFDA)” value in assay [1] is “significantly reduced ROS levels”. The “mitochondrial membrane potential (JC-1) compared with untreated promastigotes” value in assay [2] is on record as “not statistically significant”. Further, the “effect on acidocalcisomes (acridine orange fluorescence)” value in assay [3] is “progressive and continuous acidification of these organelles”.
